Results: the supplement of paper PMC11061612

Tests used:
Assay in all cases: combination Emax (second highest fraction inhibited in the dose matrix, 72 h); higher = more inhibition; extreme values may be limits of the assay
[1] = test system: SUP-M2 (T-Cell Non-Hodgkin's Lymphoma)
Procedure, shortened: (§1)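 After 24 hours at 37°C and 5% CO2 in 1536-well plates, cells in DMEM/F12 or RPMI plus 10% FBS received two-drug dose matrices for 72 hours. Viability came from CellTiter-Glo 2.0 luminescence and was scaled as inhibition, anchored at 0 by vehicle wells and at 1 by blank wells. Combination Emax is taken as the second-highest inhibition in the matrix, and Bliss excess as the observed combination effect less EA + EB − EA·EB, with EA and EB the single-agent effects.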

[2] = test system: NCI-H596 (Other Solid Carcinomas)
Procedure, shortened: as §1

[3] = test system: Raji (Burkitt's Lymphoma)
Procedure, shortened: as §1

[4] = test system: SNU-423 (Hepatocellular Carcinoma)
Procedure, shortened: as §1

[5] = test system: SKG-IIIa (Cervical Carcinoma)
Procedure, shortened: as §1

[6] = test system: P32-ISH (Burkitt's Lymphoma)
Procedure, shortened: as §1

[7] = test system: MDA-MB-415 (Breast Carcinoma)
Procedure, shortened: as §1

[8] = test system: NCI-H1876 (Small Cell Lung Carcinoma)
Procedure, shortened: as §1

WM35 (Melanoma) = test system: WM35 (Melanoma)
Procedure, shortened: as §1

[9] = test system: TUR (Acute Myeloid Leukemia)
Procedure, shortened: as §1

NB1 (Neuroblastoma) = test system: NB1 (Neuroblastoma)
Procedure, shortened: as §1

[10] = test system: SNU-407 (Colorectal Carcinoma)
Procedure, shortened: as §1

[11] = test system: CL-11 (Colorectal Carcinoma)
Procedure, shortened: as §1

[12] = test system: PA-TU-8988T (Pancreatic Carcinoma)
Procedure, shortened: as §1

[13] = test system: MONO-MAC-6 (Acute Myeloid Leukemia)
Procedure, shortened: as §1

[14] = test system: RCC-JW (Kidney Carcinoma)
Procedure, shortened: as §1

[15] = test system: NCI-H1963 (Small Cell Lung Carcinoma)
Procedure, shortened: as §1

[16] = test system: T84 (Colorectal Carcinoma)
Procedure, shortened: as §1

[17] = test system: MOLT-13 (T-Lymphoblastic Leukemia)
Procedure, shortened: as §1

Structure (SMILES) | combination Emax [1] | combination Emax [2] | combination Emax [3] | combination Emax [4] | combination Emax [5] | combination Emax [6] | combination Emax [7] | combination Emax [8] | combination Emax (WM35 (Melanoma)) | combination Emax [9] | combination Emax (NB1 (Neuroblastoma)) | combination Emax [10] | combination Emax [11] | combination Emax [12] | combination Emax [13] | combination Emax [14] | combination Emax [15] | combination Emax [16] | combination Emax [17]
Cn1cnc2c(F)c(Nc3ccc(Br)cc3Cl)c(C(=O)NOCCO)cc21 [Selumetinib] + CCN(CCO)CCCOc1ccc2c(Nc3cc(CC(=O)Nc4cccc(F)c4)[nH]n3)ncnc2c1 [AZD2811] (first compound max 10 µM, 7x7, partner max 1 µM) | 0.998 | 0.23 | 0.0936 | 0.264 | 0.321 | 0.867 | 0.248 | 0.792 | 0.664 | 0.349 | 0.566 | 0.726 | 0.709 | 0.321 | 0.703 | 0.132 | 0.902 | 0.312 | 1
COc1cc2ncnc(Nc3ccc(F)c(Cl)c3)c2cc1OCCCN1CCOCC1 [Gefitinib] + CC(C)n1c(=O)n(C)c2cnc3cc(F)c(-c4ccc(OCCCN5CCCCC5)nc4)cc3c21 [AZD1390] (first compound max 10 µM, 7x7, partner max 0.3 µM) | 0.116 | 0.269 | 0.162 | 0.126 | 0.148 | 0.333 | 0.191 | 0.178 | 0.0767 | 0.293 | 0.0869 | 0.168 | 0.0239 | 0.15 | 0.42 | 0.226 | 0.062 | 0.227 | 0.311
NC1(C(=O)N[C@@H](CCO)c2ccc(Cl)cc2)CCN(c2ncnc3[nH]ccc23)CC1 [Capivasertib] + CC(=O)c1c(C)c2cnc(Nc3ccc(N4CCNCC4)cn3)nc2n(C2CCCC2)c1=O [Palbociclib] (first compound max 10 µM, 7x7, partner max 10 µM) | 0.89 | 0.596 | 0.491 | 0.458 | 0.27 | 0.774 | 0.769 | 0.253 | 0.263 | 0.876 | 0.697 | 0.678 | 0.358 | 0.456 | 0.728 | 0.449 | 0.477 | 0.267 | 0.732
COc1nnc2ccc(N3CCC(c4ccc(OCCN5CCN(C)C(=O)[C@H]5C)cc4)CC3)nn12 [AZD5153] + CCN(CCO)CCCOc1ccc2c(Nc3cc(CC(=O)Nc4cccc(F)c4)[nH]n3)ncnc2c1 [AZD2811] (first compound max 1 µM, 7x7, partner max 1 µM) | 0.994 | 0.744 | 0.558 | 0.507 | 0.495 | 0.873 | 0.502 | 0.708 | 0.534 | 0.827 | 0.556 | 0.866 | 0.677 | 0.695 | 0.995 | 0.3 | 0.882 | 0.202 | 1
Cc1c2c(nn1C)CSCc1cc(n(C)n1)CSc1cc(c3ccccc3c1)OCCCc1c(C(=O)O)n(C)c3c-2c(Cl)ccc13 [AZD5991] + CN(C)CCCOc1ccc(-c2ccc3ncc4c(c3c2)n(C2CCOCC2)c(=O)n4C)cn1 [AZD0156] (first compound max 1 µM, 7x7, partner max 1 µM) | 1 | 0.328 | 0.704 | 0.297 | 0.218 | 1 | 0.463 | 0.629 | 0.231 | 0.477 | 0.278 | 0.676 | 0.164 | 0.214 | 1 | 0.289 | 0.354 | 0.192 | 1
COc1nnc2ccc(N3CCC(c4ccc(OCCN5CCN(C)C(=O)[C@H]5C)cc4)CC3)nn12 [AZD5153] + C=CCn1c(=O)c2cnc(Nc3ccc(N4CCN(C)CC4)cc3)nc2n1-c1cccc(C(C)(C)O)n1 [AZD1775] (first compound max 1 µM, partner max 1 µM) | 0.996 | 0.803 | 0.711 | 0.462 | 0.546 | 0.982 | 0.44 | 0.99 | 0.467 | 0.867 | 0.842 | 0.89 | 0.809 | 0.778 | 0.989 | 0.382 | 0.952 | 0.349 | 1
NC1(C(=O)N[C@@H](CCO)c2ccc(Cl)cc2)CCN(c2ncnc3[nH]ccc23)CC1 [Capivasertib] + COc1nnc2ccc(N3CCC(c4ccc(OCCN5CCN(C)C(=O)[C@H]5C)cc4)CC3)nn12 [AZD5153] (first compound max 10 µM, 7x7, partner max 1 µM) | 0.915 | 0.639 | 0.646 | 0.513 | 0.43 | 1 | 0.9 | 0.579 | 0.538 | 1 | 0.885 | 0.882 | 0.688 | 0.798 | 1 | 0.601 | 0.767 | 0.367 | 0.873
COc1nnc2ccc(N3CCC(c4ccc(OCCN5CCN(C)C(=O)[C@H]5C)cc4)CC3)nn12 [AZD5153] + CC1(C)CCC(CN2CCN(c3ccc(C(=O)NS(=O)(=O)c4ccc(NCC5CCOCC5)c([N+](=O)[O-])c4)c(Oc4cnc5[nH]ccc5c4)c3)CC2)=C(c2ccc(Cl)cc2)C1 [Venetoclax] (first compound max 1 µM, 7x7, partner max 1 µM) | 0.965 | 0.751 | 0.62 | 0.41 | 0.42 | 0.701 | 0.409 | 0.3 | 0.556 | 0.458 | 0.232 | 0.902 | 0.677 | 0.664 | 0.989 | 0.3 | 0.988 | 0.219 | 0.987
CN(C)CCCOc1ccc(-c2ccc3ncc4c(c3c2)n(C2CCOCC2)c(=O)n4C)cn1 [AZD0156] + O=C(c1cc(Cc2n[nH]c(=O)c3ccccc23)ccc1F)N1CCN(C(=O)C2CC2)CC1 [Olaparib] (first compound max 3 µM, partner max 3 µM) | 0.606 | 0.41 | 0.482 | 0.293 | 0.139 | 0.628 | 0.325 | 0.807 | 0.201 | 0.273 | 0.357 | 0.296 | 0.358 | 0.211 | 0.461 | 0.468 | – | 0.353 | 0.397
CC(=O)c1c(C)c2cnc(Nc3ccc(N4CCNCC4)cn3)nc2n(C2CCCC2)c1=O [Palbociclib] + CN(CC[C@H](CSC1=CC=CC=C1)NC2=C(C=C(C=C2)S(=O)(=O)NC(=O)C3=CC=C(C=C3)N4CCC(CC4)[C@H](C5=CC=CC=C5C6=CC=C(C=C6)Cl)O)S(=O)(=O)C(F)(F)F)CCO [AZD4320] (first compound max 10 µM, 7x7, partner max 1 µM) | 0.897 | 0.521 | 0.455 | – | – | 0.735 | – | 0.926 | 0.229 | 0.381 | 0.597 | 0.483 | 0.759 | 0.33 | – | – | 1 | – | 0.975
COc1nnc2ccc(N3CCC(c4ccc(OCCN5CCN(C)C(=O)[C@H]5C)cc4)CC3)nn12 [AZD5153] + CN(CC[C@H](CSC1=CC=CC=C1)NC2=C(C=C(C=C2)S(=O)(=O)NC(=O)C3=CC=C(C=C3)N4CCC(CC4)[C@H](C5=CC=CC=C5C6=CC=C(C=C6)Cl)O)S(=O)(=O)C(F)(F)F)CCO [AZD4320] (first compound max 1 µM, 7x7, partner max 1 µM) | 0.986 | 0.823 | 0.579 | – | – | 0.68 | – | 0.977 | 0.718 | 0.626 | 0.248 | 0.902 | 0.782 | 0.695 | – | – | 1 | – | 1
C=CCn1c(=O)c2cnc(Nc3ccc(N4CCN(C)CC4)cc3)nc2n1-c1cccc(C(C)(C)O)n1 [AZD1775] + C1CN(CCC1(C(=O)N[C@@H](CCO)C2=CC=C(C=C2)Cl)N)C3=NC=NC4=C3C=CN4 [Capivasertib] (first compound max 3 µM, partner max 3 µM) | 1 | 0.708 | 0.977 | 0.659 | 0.574 | 1 | 0.764 | 0.956 | 0.681 | 0.955 | 0.69 | 0.675 | 0.734 | 0.851 | 0.95 | 0.619 | – | 0.785 | 0.973
C[C@@H](c1ccc2nccn2c1)n1nnc2ncc(-c3cnn(C)c3)nc21 [Savolitinib] + CN(CC[C@H](CSC1=CC=CC=C1)NC2=C(C=C(C=C2)S(=O)(=O)NC(=O)C3=CC=C(C=C3)N4CCC(CC4)[C@H](C5=CC=CC=C5C6=CC=C(C=C6)Cl)O)S(=O)(=O)C(F)(F)F)CCO [AZD4320] (first compound max 1 µM, 7x7, partner max 1 µM) | 0.287 | 0.275 | 0.173 | – | – | 0.165 | – | 0.797 | 0.251 | 0.135 | 0.159 | 0.722 | 0.173 | 0.191 | – | – | 1 | – | 0.912
